The results in this text go back to patent US6887896B1, “7-[(7-Alkoxy)-chrom-3-en-6-yl]-heptatrienoic acid and 7-[(3-alkoxy)-5,6-dihydronaphthalen-2-yl]-heptatrienoic acid derivatives having serum glucose reducing activity” (Allergan, Inc., priority 2003, dated 2005).

Each structure is given as a SMILES string. Some results are limits rather than exact numbers.

The target in assay [1] is T1, RXRα (Homo sapiens, UniProt P19793).
T1 construct: expressed in transfected cells
T1 sequence (P19793 1-462): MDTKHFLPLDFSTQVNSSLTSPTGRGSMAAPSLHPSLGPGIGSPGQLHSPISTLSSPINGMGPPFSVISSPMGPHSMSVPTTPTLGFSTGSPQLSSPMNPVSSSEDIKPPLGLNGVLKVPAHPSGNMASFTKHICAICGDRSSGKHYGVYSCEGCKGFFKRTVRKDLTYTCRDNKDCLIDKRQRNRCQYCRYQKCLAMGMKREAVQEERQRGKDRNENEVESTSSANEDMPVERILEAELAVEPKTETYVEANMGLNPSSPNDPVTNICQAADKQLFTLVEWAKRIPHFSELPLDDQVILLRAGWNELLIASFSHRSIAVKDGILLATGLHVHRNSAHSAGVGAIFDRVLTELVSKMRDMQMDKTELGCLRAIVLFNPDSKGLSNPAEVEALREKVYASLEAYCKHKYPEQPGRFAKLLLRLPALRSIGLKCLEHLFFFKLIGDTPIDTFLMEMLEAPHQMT
The experiment in a line: holoreceptor transactivation assay, RXRα. The assay is classed as cell-based. The settings on record: for EC50: holoreceptor transactivation, read-out: RXR Trans. EC50 α; for Emax: percentage compared to the standard compound, read-out: RXR Trans. efficacy (number in parentheses) α. From the text: (§1) Specifically, one such assay is a chimeric receptor transactivation assay which tests for agonist-like activity in the R RAPE and RAR7 receptor subtypes, and which is based on work published by Feigner, P. L. and Holm, M (1989) Focus, 112 is described in detail in U.S. Pat. No. 5,455,265. The specification of U.S. Pat. No. 5,455,265 is hereby expressly incorporated by reference. A holoreceptor transactivation assay and a ligand binding assay which measure the antagonist/agonist like activity of the compounds of the invention, or their ability to bind to the several retinoid receptor subtypes, respectively, are described in published PCT Application No. WO WO93/11755 (particularly on pages 30-33 and 37-41) published on Jun. 24, 1993, the specification of which is also incorporated herein by reference. A detailed experimental procedure for holoreceptor transactivations has been described by Heyman et al. Cell 68, 397-406, (1992); Allegretto et al. J. Biol. Chem. 268, 26625-26633, and Mangelsdorf et al. The Retinoids: Biology, Chemistry and Medicine, pp 319-349, Raven Press Ltd., New York, which are expressly incorporated herein by reference. The results obtained in this assay are expressed in EC50 numbers, as they are also in the chimeric receptor transactivation assay. The results of the ligand binding assay are expressed in Ki numbers. (See Cheng et al. Biochemical Pharmacology Vol. 22 pp 3099-3108, expressly incorporated herein by reference.)
(§2) Efficacy in a transactivation assay is expressed as a percentage of the maximum potency attained by the compound compared to a standard which, in this case, is the compound named (2E,4E,1′S,2′S)-3-methyl-5-[2′-methyl-2′-(5,5,8,8-tetramethyl-5,6,7,8-tetrahydro-naphthalen-2-yl)-cyclopropyl]-penta-2,4-dienoic acid. This standard compound is described in U.S. Pat. No. 6,114,533.
(§3) The specification of this application for patent is organized in several sections in accordance with structural Formulas A through F each of which discloses a group of preferred compounds within the scope of the invention. Tables that disclose the activity of certain exemplary compounds of the invention in the above-described RXR receptor transactivation and binding assays are found in the corresponding sections. […] The transactivation data pertaining to the activation of RXR receptors were obtained in the holoreceptor assay.
(§4) Generally speaking, in the tables disclosing the results of transactivation and binding assays the numbers in parentheses indicate efficacy as a percentage compared to the standard compound, (2E,4E,1′S,2′S)-3-methyl-5-[2′-methyl-2′-(5,5,8,8-tetramethyl-5,6,7,8-tetrahydro-naphthalen-2-yl)cyclopropyl]-penta-2,4-dienoic acid and the other numbers indicate the measured EC50 and K; in nanomolar concentration.

The target of a further assay is T2, RXRβ (UniProt P28704).
T2 sequence (P28704 1-520): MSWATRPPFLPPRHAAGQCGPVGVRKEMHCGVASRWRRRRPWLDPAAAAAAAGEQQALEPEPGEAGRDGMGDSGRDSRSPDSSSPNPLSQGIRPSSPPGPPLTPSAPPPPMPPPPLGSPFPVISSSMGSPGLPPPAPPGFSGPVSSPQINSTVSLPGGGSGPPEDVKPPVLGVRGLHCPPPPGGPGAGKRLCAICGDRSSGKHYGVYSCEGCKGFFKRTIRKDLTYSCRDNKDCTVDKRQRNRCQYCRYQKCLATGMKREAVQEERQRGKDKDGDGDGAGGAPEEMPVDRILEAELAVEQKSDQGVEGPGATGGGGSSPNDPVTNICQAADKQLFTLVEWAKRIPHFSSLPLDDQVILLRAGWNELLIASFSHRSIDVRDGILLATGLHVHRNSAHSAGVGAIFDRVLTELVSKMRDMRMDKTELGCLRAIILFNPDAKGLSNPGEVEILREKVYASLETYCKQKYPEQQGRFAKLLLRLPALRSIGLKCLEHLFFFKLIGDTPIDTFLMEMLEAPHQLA
Description: holoreceptor transactivation assay, RXRβ. The assay is classed as cell-based. Particulars: for EC50: holoreceptor transactivation, read-out: RXR Trans. EC50 β; for RXR Trans. efficacy (number in parentheses) β: percentage compared to the standard compound.
Source text: as §1, §2, §3, §4

A further assay deals with T3, RARβ (Homo sapiens, UniProt P10826).
T3 sequence (P10826 1-455): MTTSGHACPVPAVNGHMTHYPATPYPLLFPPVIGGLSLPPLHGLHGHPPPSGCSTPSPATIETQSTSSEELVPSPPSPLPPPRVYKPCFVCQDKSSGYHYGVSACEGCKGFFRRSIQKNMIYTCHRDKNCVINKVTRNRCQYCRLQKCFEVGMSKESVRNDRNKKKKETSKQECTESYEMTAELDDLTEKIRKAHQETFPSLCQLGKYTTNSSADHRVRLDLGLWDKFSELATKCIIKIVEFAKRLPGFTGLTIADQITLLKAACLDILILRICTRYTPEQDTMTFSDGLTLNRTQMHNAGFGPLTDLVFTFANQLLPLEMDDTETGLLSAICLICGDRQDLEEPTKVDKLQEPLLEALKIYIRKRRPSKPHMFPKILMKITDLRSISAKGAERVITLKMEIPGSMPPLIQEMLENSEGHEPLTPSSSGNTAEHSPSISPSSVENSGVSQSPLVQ
Description: ligand binding assay, RARβ. Particulars: for Ki: read-out: RAR Bind. Ki β; for Kd: Table 9 (Formula F), read-out: RAR β Kd.
Source text: as §1, §4

For assay [2], the target named is T1, RXRα. Description: ligand binding assay, RXRα. Particulars: for Ki: read-out: RXR Bind Ki α; for Kd: Table 9 (Formula F), read-out: RXR α Kd.
Source text: as §1, §4

The EC50 is the midpoint of the concentration-response curve. A word on the Ki: it is a measure of affinity in units of concentration, obtained from inhibition or displacement. The Kd is the constant that tells how readily two partners part at equilibrium.

For `COc1cc2c(cc1\C(C)=C(F)/C=C/C(C)=C/C(=O)O)C(C(C)(C)C)=CC(C)(C)O2` [Compound 122, 7-(4-tert-Butyl-7-methoxy-2,2-dimethyl-2H-chromen-6-yl)-6-fluoro-3-methyl-octa-2E,4E,6E-trienoic acid], at RXRα [1], the EC50 is 5 nM and the Emax was 36%. Also, at RXRβ, the EC50 was 35 nM and the “RXR Trans. efficacy (number in parentheses) β” value (“RXR Trans. efficacy” below) was 61%. Further, on RARβ, the Ki turned out to be 1400 nM. Moreover, the Ki at RXRα [2] stood at 11 nM.

Take `CCOc1c(\C(CC)=C(F)/C=C/C(C)=C/C(=O)O)cc2c(c1Cl)OC(C)(C)C=C2C(C)C` [Compound 173]: on RXRα [1], the EC50 was 4.8 nM and the Emax is 18%. For the same molecule, at RXRβ, the EC50 was 18 nM and the “RXR Trans. efficacy” value was 21%. For the same molecule, the Ki at RARβ is 431 nM. Moreover, at RXRα [2], the Ki turned out to be 2 nM.

Turning to `CCOc1c(\C(C)=C/C=C/C(C)=C/C(=O)O)cc2c(c1Cl)OC(C)(C)C=C2C(C)C` [Compound 50, 7-(8-Chloro-4-isopropyl-7-ethoxy-2,2-dimethyl-2H-chromen-6-yl)-3-methyl-octa-2E,4E,6Z-trienoic acid], at RXRα [1], the EC50 came to 2 nM and the Emax was determined as 56%. Further, on RXRβ, the EC50 is 19 nM and the “RXR Trans. efficacy” value is 57%. In addition, the Ki on RARβ was 1300 nM. Also, the Ki at RXRα [2] came to 4 nM.

As to `CCOc1c(\C(=C/C=C/C(C)=C/C(=O)O)CC)cc2c(c1Cl)OC(C)(C)C=C2C(C)C` [Compound 51], the EC50 at RXRα [1] amounted to 9 nM; at RXRβ, 88 nM. Besides, the Emax on RXRα [1] stood at 25%. For the same molecule, the “RXR Trans. efficacy” value at RXRβ is 26%. The values for the Ki on RARβ and at RXRα [2] were 1400 nM and 13 nM, respectively.

On to `COc1cc2c(cc1\C(C)=C/C=C/C(C)=C/C(=O)O)C(C(C)C)=CC(C)(C)O2` [Compound 43, 7-(4-Isopropyl-7-methoxy-2,2-dimethyl-2H-chromen-6-yl)-3-methyl-octa-2E,4E,6Z-trienoic acid], for which the values for the EC50 on RXRα [1] and on RXRβ were 2 nM and 16 nM, respectively. At RXRα [1], the Emax was determined as 89%. Besides, on RXRβ, the “RXR Trans. efficacy” value is 96%. In addition, the values for the Ki on RARβ and at RXRα [2] were 378 nM and 6 nM, respectively.

Turning to `CCOc1cc2c(cc1\C(CC)=C(F)/C=C/C(C)=C/C(=O)O)C(C)=CC(C)(C)O2` [Compound 132, 7-(7-Ethoxy-2,2,4-trimethyl-2H-chromen-6-yl)-6-fluoro-3-methyl-nona-2E,4E,6E-trienoic acid], the EC50 at RXRα [1] is 759 nM; at RXRβ, greater than 10000 nM. The Emax at RXRα [1] stood at 15%. Besides, the Ki came to 548 nM on RARβ and 124 nM on RXRα [2].

With `CCOc1c(\C(=C(F)/C=C/C(C)=C/C(=O)O)C(C)C)cc2c(c1Br)C(C)(C)CC=C2C(C)C` [Compound A-171, (2E,4E,6E)-7-(4-Bromo-3-ethoxy-8-isopropyl-5,5-dimethyl-5,6-dihydro-naphthalen-2-yl)-6-fluoro-3.8-dimethyl-nona-2.4,6-trienoic acid], at RXRα [1], the EC50 was 0.9 nM and the Emax came to 24%. Also, on RXRβ, the EC50 amounted to 3 nM and the “RXR Trans. efficacy” value is 30%. Further, at RARβ, the Kd is 37 nM. Besides, the dissociation constant (Kd) at RXRα [2] amounted to 2 nM.

In the case of `CC(/C=C/C(F)=C(/C)c1cc2c(c(Br)c1OC(C)C)C(C)(C)CC=C2C(C)C)=C\C(=O)O` [Compound A-172, (2E,4E,6E)-7-(4-Bromo-3-isopropoxy-8-isopropyl-5,5-dimethyl-5,6-dihydro-naphthalen-2-yl)-6-fluoro-3-methyl-octa-2,4,6-trienoic acid], the results for the 50% effective concentration (EC50) at RXRα [1] and on RXRβ were 19 nM and 83 nM, respectively. Also, the Emax at RXRα [1] amounted to 31%. Besides, on RXRβ, the “RXR Trans. efficacy” value turned out to be 39%. Moreover, the Kd on RARβ came out at 212 nM; on RXRα [2] it was 8 nM.
